Measured values as given in the supplement of paper PMC8612539.
In brackets after ≈: the same amount, converted by molar mass.

System: Histophilus somni
Assay: minimum inhibitory concentration (MIC)
Procedure: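 Broth microdilution MIC (Sensititre BOPO7F bovine plate, CLSI methods) of 19 antimicrobials against field isolates of P. multocida, M. haemolytica, H. somni (deep nasopharyngeal swabs) and E. coli, Enterococcus spp. (rectal swabs) from weaned dairy heifers. Incubation 16-24 h at 35 C. MIC is the lowest concentration preventing visible growth. Values with <= or > lie at the tested range limits. Trimethoprim-sulfamethoxazole is given as the trimethoprim component of a 1:19 mixture.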

CC1(C)S[C@@H]2[C@H](NC(=O)[C@H](N)c3ccccc3)C(=O)N2[C@H]1C(=O)O [Ampicillin]
Conditions	minimum inhibitory concentration [µg/mL]
isolate (source animal id): 3	≤ 0.25
isolate (source animal id): 4	0.5 (≈ 1.43 µM)
isolate (source animal id): 7	≤ 0.25
isolate (source animal id): 14	≤ 0.25
isolate (source animal id): 15	≤ 0.25
isolate (source animal id): 17	≤ 0.25
isolate (source animal id): 18	≤ 0.25
isolate (source animal id): 20	≤ 0.25
isolate (source animal id): 23	≤ 0.25
isolate (source animal id): 45	≤ 0.25
isolate (source animal id): 53	≤ 0.25
isolate (source animal id): 83	≤ 0.25
isolate (source animal id): 88	≤ 0.25
isolate (source animal id): 92	≤ 0.25
isolate (source animal id): 93	≤ 0.25
isolate (source animal id): 99	≤ 0.25
isolate (source animal id): 100	≤ 0.25
isolate (source animal id): 105	≤ 0.25
isolate (source animal id): 107	≤ 0.25
isolate (source animal id): 108	≤ 0.25
isolate (source animal id): 109	≤ 0.25
isolate (source animal id): 110	≤ 0.25
isolate (source animal id): 117	≤ 0.25
isolate (source animal id): 121	≤ 0.25
isolate (source animal id): 123	≤ 0.25
isolate (source animal id): 124	≤ 0.25
isolate (source animal id): 127	≤ 0.25
isolate (source animal id): 128	≤ 0.25
isolate (source animal id): 130	> 16
isolate (source animal id): 132	≤ 0.25
isolate (source animal id): 135	≤ 0.25
isolate (source animal id): 140	≤ 0.25
isolate (source animal id): 141	≤ 0.25
isolate (source animal id): 142	≤ 0.25
isolate (source animal id): 144	≤ 0.25
isolate (source animal id): 146	≤ 0.25
isolate (source animal id): 147	≤ 0.25
isolate (source animal id): 151	≤ 0.25
isolate (source animal id): 153	≤ 0.25
isolate (source animal id): 154	≤ 0.25
isolate (source animal id): 156	≤ 0.25
isolate (source animal id): 157	≤ 0.25
isolate (source animal id): 176	≤ 0.25
isolate (source animal id): 183	≤ 0.25
isolate (source animal id): 186	≤ 0.25
isolate (source animal id): 196	≤ 0.25
isolate (source animal id): 198	≤ 0.25
isolate (source animal id): 200	≤ 0.25
isolate (source animal id): 206	≤ 0.25
isolate (source animal id): 208	≤ 0.25
isolate (source animal id): 210	≤ 0.25
isolate (source animal id): 212	≤ 0.25
isolate (source animal id): 215	≤ 0.25
isolate (source animal id): 216	≤ 0.25
isolate (source animal id): 218	≤ 0.25
isolate (source animal id): 219	≤ 0.25
isolate (source animal id): 224	≤ 0.25
isolate (source animal id): 228	≤ 0.25
isolate (source animal id): 230	≤ 0.25
isolate (source animal id): 233	≤ 0.25
isolate (source animal id): 238	≤ 0.25
isolate (source animal id): 239	≤ 0.25
isolate (source animal id): 241	≤ 0.25
isolate (source animal id): 242	≤ 0.25
isolate (source animal id): 243	≤ 0.25
isolate (source animal id): 245	≤ 0.25
isolate (source animal id): 246	≤ 0.25
isolate (source animal id): 247	≤ 0.25
isolate (source animal id): 248	≤ 0.25
isolate (source animal id): 250	≤ 0.25
isolate (source animal id): 251	≤ 0.25
isolate (source animal id): 252	≤ 0.25
isolate (source animal id): 254	≤ 0.25
isolate (source animal id): 258	≤ 0.25
isolate (source animal id): 259	≤ 0.25
isolate (source animal id): 262	≤ 0.25
isolate (source animal id): 264	≤ 0.25
isolate (source animal id): 265	4 (≈ 11.4 µM)
isolate (source animal id): 266	≤ 0.25
isolate (source animal id): 267	≤ 0.25
isolate (source animal id): 269	≤ 0.25
isolate (source animal id): 271	≤ 0.25
isolate (source animal id): 272	4 (≈ 11.4 µM)
isolate (source animal id): 274	≤ 0.25
isolate (source animal id): 276	≤ 0.25
isolate (source animal id): 278	≤ 0.25
isolate (source animal id): 280	1 (≈ 2.86 µM)
isolate (source animal id): 281	≤ 0.25
isolate (source animal id): 283	≤ 0.25
isolate (source animal id): 288	≤ 0.25
isolate (source animal id): 291	≤ 0.25
isolate (source animal id): 292	≤ 0.25
isolate (source animal id): 296	≤ 0.25
isolate (source animal id): 306	≤ 0.25
isolate (source animal id): 336	≤ 0.25
isolate (source animal id): 337	≤ 0.25
isolate (source animal id): 341	≤ 0.25
